In patent US5925730A, “GnRH antagonists” (Ferring BV, priority 1997, dated 1999):
Starred links: 1 amine or outer side, 2 acyl side, 3 side chain; linkers in the order of their positions; H or OH if unused. Non-standard residues stand in square brackets, D forms with d. Residues, ends and D or L forms follow the SMILES beside them. Groups on a side chain read outwards from the residue. *: point of attachment. dPhe(4-NHCONH2) = NC(=O)Nc1ccc(C[C@@H](N)C(=O)O)cc1; Phe(4-NHCONH2) = NC(=O)Nc1ccc(C[C@H](N)C(=O)O)cc1; dPhe(4-NH2) = Nc1ccc(C[C@@H](N)C(=O)O)cc1; dPhe(4-Cl) = N[C@H](Cc1ccc(Cl)cc1)C(=O)O; Phe(4-NH2) = Nc1ccc(C[C@H](N)C(=O)O)cc1; d2Nal = N[C@H](Cc1ccc2ccccc2c1)C(=O)O; Lys(iPr) = CC(C)NCCCC[C@H](N)C(=O)O; d3Pal = N[C@H](Cc1cccnc1)C(=O)O; X1 = O=C1NC[C@@H](C(=O)*)N1; CO = O=C([*:1])[*:2]

Legend:
secretion of LH = test: in vivo rat LH suppression test (circulating LH levels in castrated male rats after sc injection); design: species or system castrated male Sprague-Dawley rats; details: for effectiveness in suppression of LH compared with Acyline, day 1 through day 4 (96 hours): days 1-4; for effectiveness in suppression of LH compared with Acyline, first two days: days 1-2; for suppression of LH compared with Acyline at days 3 and 4 (72 and 96 hours; after the first 2 days): days 3-4; for effectiveness in suppression of LH compared with Acyline, day 1 through day 3: days 1-3
Procedure: The peptide is assayed in vivo to determine its effectiveness to suppress the secretion of LH in rats. Measurement of circulating LH levels in castrated male Sprague-Dawley rats treated subcutaneously with the peptide is carried out as reported in C. Rivier et al. Biol. Reproduc., 1983, 29, 374-378. The peptides are first dissolved at a concentration of 1.0 or 10 mg/ml in bacteriostatic water and then further diluted in 0.04 M phosphate buffer containing 0.1% BSA. Subsequent dilutions are made in phosphate buffer. The peptides are injected sc into 5 rats, and blood samples (300 μl) are collected under metotane anesthesia. Sera (50 μl) are tested for LH levels in duplicate using reagents provided by the National Pituitary and Hormone Distribution Program of the NIDDK.

[1] = water solubility compared with Acyline; assay type: physicochemical
[2] = hydrophilicity by RP-HPLC retention time (TEAP pH 7.0 / CH3CN gradient); assay type: physicochemical; details: for hydrophilicity compared with Azaline B: RP-HPLC elution

## CC(=O)N[C@H](Cc1ccc2ccccc2c1)C(=O)N[C@H](Cc1ccc(Cl)cc1)C(=O)N[C@H](Cc1cccnc1)C(=O)N[C@@H](CO)C(=O)N[C@@H](Cc1ccc(NC(N)=O)cc1)C(=O)N[C@H](Cc1ccc(NC(N)=O)cc1)C(=O)N[C@@H](CC(C)C)C(=O)N[C@@H](CCCCNC(C)C)C(=O)N1CCC[C@H]1C(=O)N[C@H](C)C(N)=O [Example 1L, Ac-β-D-2Nal-D-4Cpa-D-3Pal-Ser-4Aph(carbamoyl)-D-4Aph(carbamoyl)-Leu-Lys(isopropyl)-Pro-D-Ala-NH2] (Ac-[d2Nal][dPhe(4-Cl)][d3Pal]S[Phe(4-NHCONH2)][dPhe(4-NHCONH2)]L[Lys(iPr)]P[dA]-NH2)
Secretion of LH; 50 micrograms sc
  duration of bioactivity for the suppression of LH (rating in words): long-acting
  effectiveness in suppression of LH compared with Acyline, day 1 through day 4 (96 hours): about as effective as Acyline

## CNC(=O)Nc1ccc(C[C@H](NC(=O)[C@H](CO)NC(=O)[C@@H](Cc2cccnc2)NC(=O)[C@@H](Cc2ccc(Cl)cc2)NC(=O)[C@@H](Cc2ccc3ccccc3c2)NC(C)=O)C(=O)N[C@H](Cc2ccc(NC(=O)NC)cc2)C(=O)N[C@@H](CC(C)C)C(=O)N[C@@H](CCCCNC(C)C)C(=O)N2CCC[C@H]2C(=O)N[C@H](C)C(N)=O)cc1 [Example 1M, Ac-β-D-2Nal-D-4Cpa-D-3Pal-Ser-4Aph(methylcarbamoyl)-D-4Aph(methylcarbamoyl)-Leu-Lys(isopropyl)-Pro-D-Ala-NH2] (Ac-[d2Nal][dPhe(4-Cl)][d3Pal]S[Phe(4-NH2)]([CO-NHMe])[dPhe(4-NH2)]([CO-NHMe])L[Lys(iPr)]P[dA]-NH2)
Secretion of LH; 50 micrograms sc
  effectiveness in suppression of LH compared with Acyline, first two days: about as effective as Acyline
  suppression of LH compared with Acyline at days 3 and 4 (72 and 96 hours; after the first 2 days): begins to drop off somewhat

## CC(=O)Nc1ccc(C[C@@H](NC(=O)[C@H](Cc2ccc(NC(=O)[C@@H]3CNC(=O)N3)cc2)NC(=O)[C@H](CO)NC(=O)[C@@H](Cc2cccnc2)NC(=O)[C@@H](Cc2ccc(Cl)cc2)NC(=O)[C@@H](Cc2ccc3ccccc3c2)NC(C)=O)C(=O)N[C@@H](CC(C)C)C(=O)N[C@@H](CCCCNC(C)C)C(=O)N2CCC[C@H]2C(=O)N[C@H](C)C(N)=O)cc1 [Example 3A] (Ac-[d2Nal][dPhe(4-Cl)][d3Pal]S[Phe(4-NH2)](X1)[dPhe(4-NH2)](Ac)L[Lys(iPr)]P[dA]-NH2)
[1]
  water solubility compared with Acyline: more water soluble than Acyline

## Ac-D-2Nal-D-4Cpa-D-3Pal-Ser-4Aph(D-hydroorotyl)-D-4Amf(Ac)-Leu-ILys-Pro-D- Ala-NH2 [Example 5A]
Secretion of LH; 50 micrograms sc, 96 hours
  suppression of LH compared with Acyline at 96 hours / 4 days (after day 3): somewhat superior to Acyline
Secretion of LH; 50 micrograms sc
  effectiveness in suppression of LH compared with Acyline, day 1 through day 3: substantially the same as Acyline

## Ac-D-2Nal-D-4Cpa-D-3Pal-Ser-4Aph(D-hydroorotyl)-D-4Amf(Cbm)-Leu-ILys-Pro-D-Ala-NH2 [Example 5]
Secretion of LH; 50 micrograms sc
  effectiveness in suppression of LH compared with Acyline, first two days: about as long as Acyline
  suppression of LH compared with Acyline at days 3 and 4 (72 and 96 hours; after the first 2 days): some lesser degree of suppression

## Ac-D-2Nal-D-4Cpa-D-3Pal-Ser-4Aph(D/L-2-imidazolidone-4-carbonyl)-D-4Aph(Ac)-Leu-ILys-Pro-D-Ala-NH2 [Example 3]
Secretion of LH; 50 micrograms sc
  duration of bioactivity for the suppression of LH (rating in words): long duration
  suppression of LH compared with Acyline at days 3 and 4 (72 and 96 hours; after the first 2 days): marginally better

## Ac-D-2Nal-D-4Cpa-D-3Pal-Ser-4Aph(L-Imz)-D-4Amf(carbamoyl)-Leu-ILys-Pro-D-Ala-NH2 [Example 3B]
Secretion of LH; 50 micrograms sc
  duration of bioactivity for the suppression of LH (rating in words): long duration
  effectiveness in suppression of LH compared with Acyline, day 1 through day 3: substantially the same as Acyline
Secretion of LH; 50 micrograms sc, 96 hours
  suppression of LH compared with Acyline at 96 hours / 4 days (after day 3): somewhat superior

## Ac-D-2Nal-D-4Cpa-D-3Pal-Ser-4Aph(hydroorotyl)-D-4Amf(MeCbm)-Leu-ILys-Pro-D-Ala-NH2 [Example 4]
Secretion of LH; 50 micrograms sc
  duration of bioactivity for the suppression of LH (rating in words): very long-acting
  suppression of LH secretion compared with Acyline (time not given): better suppression of LH secretion than Acyline

## Ac-D-2Nal-D-4Cpa-D-3Pal-Ser-4Aph(hydroorotyl)-D-Cit-Leu-ILys-Pro-D-Ala-NH2 [Example 2]
[2]
  hydrophilicity compared with Cetrorelix: more hydrophilic than Cetrorelix
Secretion of LH; tested as in Example 1, 3 days
  suppression of LH at 3 days (comparator apparently Cetrorelix): marginally better
Secretion of LH; tested as in Example 1, 96 hours
  suppression of LH at 96 hours (comparator apparently Cetrorelix): substantially better
Secretion of LH; tested as in Example 1, dose not given
  duration of bioactivity for suppression of LH secretion compared with Cetrorelix: as long duration of bioactivity as Cetrorelix

## Ac-β-D-2Nal-D-4Cpa-D-3Pal-Ser-4Amf(D-hydroorotyl)-D-4Aph(acetyl)-Leu- Lys(isopropyl)-Pro-D-Ala-NH2 [Example 6C]
Secretion of LH; 50 micrograms sc, 3 days
  activity in suppression of LH secretion compared with Acyline after 3 days: substantially less effective than Acyline
Secretion of LH; 50 micrograms sc, 96 hours
  suppression of LH compared with Acyline at 96 hours / 4 days (after day 3): continues to significantly drop in biopotency
Secretion of LH; 50 micrograms sc
  effectiveness in suppression of LH compared with Acyline, first two days: substantially as effective

## Ac-β-D-2Nal-D-4Cpa-D-3Pal-Ser-4Amf(hydroorotyl)-D-4Amf(acetyl)-Leu-Lys(isopropyl)-Pro-D-Ala-NH2 [Example 6]
Secretion of LH; 50 micrograms sc
  duration of bioactivity for the suppression of LH (rating in words): long-acting
  effectiveness in suppression of LH compared with Acyline, first two days: about the same as Acyline
  suppression of LH compared with Acyline at days 3 and 4 (72 and 96 hours; after the first 2 days): nearly equal to that of Acyline

## Ac-β-D-2Nal-D-4Cpa-D-3Pal-Ser-4Amf(hydroorotyl)-D-4Aph(acetyl)-Leu-Lys(isopropyl)-Pro-D-Ala-NH2 [Example 1F]
Secretion of LH; 50 micrograms sc
  duration of bioactivity for the suppression of LH (rating in words): long-acting
  effectiveness in suppression of LH compared with Acyline, day 1 through day 4 (96 hours): about as effective as Acyline

## Ac-β-D-2Nal-D-4Cpa-D-3Pal-Ser-4Amf(hydroorotyl)-D-4Aph(carbamoyl)-Leu-Lys(isopropyl)-Pro-D-Ala-NH2 [Example 6A]
Secretion of LH; 50 micrograms sc
  activity in suppression of LH secretion compared with Acyline after 1 day: as active as Acyline
  activity in suppression of LH secretion compared with Acyline after 2 days: nearly as active
Secretion of LH; 50 micrograms sc, 3 days
  activity in suppression of LH secretion compared with Acyline after 3 days: somewhat less active
Secretion of LH; 50 micrograms sc, 96 hours
  suppression of LH compared with Acyline at 96 hours / 4 days (after day 3): about the same activity as Acyline

## Ac-β-D-2Nal-D-4Cpa-D-3Pal-Ser-4Amf(hydroorotyl)-D-4Aph(methylcarbamoyl)-Leu-Lys(isopropyl)-Pro-D-Ala-NH2 [Example 6B]
Secretion of LH; 50 micrograms sc
  activity in suppression of LH secretion compared with Acyline after 1 day: as active as Acyline
  activity in suppression of LH secretion compared with Acyline after 2 days: about as active
  suppression of LH compared with Acyline at days 3 and 4 (72 and 96 hours; after the first 2 days): significantly lesser degree of suppression

## Ac-β-D-2Nal-D-4Cpa-D-3Pal-Ser-4Aph(hydroorotyl)-D-4Aph(D-hydroorotyl)-Leu-Lys(isopropyl)-Pro-D-Ala-NH2 [Example 1H]
[2]
  hydrophilicity compared with Azaline B: more hydrophilic than Azaline B
Secretion of LH; 50 micrograms sc
  duration of bioactivity for the suppression of LH (rating in words): very long-acting
  effectiveness in suppression of LH compared with Acyline, day 1 through day 3: about as effective as Acyline
Secretion of LH; 50 micrograms sc, 96 hours
  suppression of LH compared with Acyline at 96 hours / 4 days (after day 3): substantially more effective than Acyline

## Ac-β-D-2Nal-D-4Cpa-D-3Pal-Ser-4Aph(hydroorotyl)-D-4Aph(hydroorotyl)-Leu-Lys(isopropyl)-Pro-D-Ala-NH2 [Example 1G]
[2]
  hydrophilicity compared with Azaline B: more hydrophilic than Azaline B
Secretion of LH; 50 micrograms sc
  duration of bioactivity for the suppression of LH (rating in words): long-acting
  effectiveness in suppression of LH compared with Acyline, day 1 through day 4 (96 hours): about as effective as Acyline

## Ac-β-D-2Nal-D-Cpa-D-3Pal-Ser-4Aph(D-hydroorotyl)-D-4Aph(acetyl)-Leu-Lys(isopropyl)-Pro-D-Ala-NH2 [Example 1D]
Secretion of LH; 50 micrograms sc
  duration of bioactivity for the suppression of LH (rating in words): long-acting
  effectiveness in suppression of LH compared with Acyline, day 1 through day 4 (96 hours): about as effective as Acyline

## Ac-β-D-2Nal-D-Cpa-D-3Pal-Ser-4Aph(D/L-hydroorotyl)-D-4Aph(acetyl)-Leu-Lys(isopropyl)-Pro-D-Ala-NH2 [Example 1C]
Secretion of LH; 50 micrograms sc
  duration of bioactivity for the suppression of LH (rating in words): long-acting
  effectiveness in suppression of LH compared with Acyline, day 1 through day 4 (96 hours): about as effective as Acyline

## Ac-β-D-2Nal-D-Cpa-D-3Pal-Ser-4Aph(hydroorotyl)-D-4Aph(acetyl)-Leu-Lys(isopropyl)-Pro-D-Ala-NH2 [Example 1B]
Secretion of LH; 50 micrograms sc
  duration of bioactivity for the suppression of LH (rating in words): very long-acting
  effectiveness in suppression of LH compared with Acyline, day 1 through day 4 (96 hours): about as effective as Acyline

## Acetyl-β-D-2Nal-D-4Cpa-D-3Pal-Ser-4Aph(hydroorotyl)-D-3Pal-Leu-Lys(isopropyl)-Pro-D-Ala-NH2 [Example 1K]
Secretion of LH; 50 micrograms sc
  duration of bioactivity for the suppression of LH (rating in words): very long-acting
  effectiveness in suppression of LH compared with Acyline, day 1 through day 3: about as effective as Acyline
Secretion of LH; 50 micrograms sc, 96 hours, comparator Acyline 50 micrograms
  LH levels after 96 hours as percentage of the LH levels of rats injected with Acyline: about 35%

## methylcarbamoyl-β-D-2Nal-D-4Cpa-D-3Pal-Ser-4Aph(hydroorotyl)-D-4Aph(acetyl)-Leu-Lys(isopropyl)-Pro-D-Ala-NH2 [Example 1J]
[2]
  hydrophilicity compared with Azaline B: more hydrophilic than Azaline B
Secretion of LH; 50 micrograms sc
  duration of bioactivity for the suppression of LH (rating in words): very long-acting
  effectiveness in suppression of LH compared with Acyline, day 1 through day 3: about as effective as Acyline
Secretion of LH; 50 micrograms sc, 96 hours
  how much more effective than Acyline in suppression of LH after 96 hours: ~50%
